Results reported in patent publication US20080262082A1, “COMPOSITION CONTAINING S-(-)-TULIPALIN B OR ACETYLATED-S-(-)-TULIPALIN B” (BIO SPECTRUM, INC., priority 2007, published 2008).

Legend:
Assay type in all cases: cell-based
[1] = tested on: 18 species of pathogenic bacteria (aerobic); assay: Agar diffusion antibacterial test, overall (aerobic); conditions: all kinds of bacteria (aerobic); treatment concentration of 1.0%
[2] = tested on: 8 anaerobic bacterial species; assay: Agar diffusion antibacterial test, overall (anaerobic); conditions: anaerobic bacteria; concentration of 1.0%
[3] = tested on: Staphylococcus aureus KCTC 1916; assay: MIC by broth dilution method; conditions: S. aureus, 37° C., 24 hours
[4] = tested on: Vibrio parahaemolyticus KCTC 27; assay: MIC by broth dilution method; conditions: V. parahaemolyticus, 37° C., 24 hours
[5] = tested on: Salmonella enteritidis KCTC 12400; assay: MIC by broth dilution method; conditions: S. enteritidis, 37° C., 24 hours
[6] = tested on: Salmonella typhimurium KCTC 2514; assay: MIC by broth dilution method; conditions: S. typhimurium, 37° C., 24 hours
[7] = tested on: Escherichia coli KCTC 1039; assay: MIC by broth dilution method; conditions: E. coli, 37° C., 24 hours

MIC [3] [%]	MIC [5] [%]	MIC [6] [%]	MIC [7] [%]	SMILES	Antibacterial effects [1]	Antibacterial activity [2]	MIC [4] [%]
–	–	–	–	C=C1C(=O)OC[C@@H]1O [R-(+)-tulipalin B, (4R)-4-hydroxy-3-methylene-oxolan-2-one, reference compound]	no antibacterial effects	no antibacterial activity	–
0.04	0.01	0.03	0.01	C/C=C/C=C/C(=O)O [Sorbic acid, reference compound]	–	–	0.03
0.03	0.01	0.02	0.005	O=C1C(N(CO)C(=O)NCO)N(CO)C(=O)N1CO (stereo not drawn) [Germall II]	–	–	0.02
